pIC50: −log10 of the molar value.

In data set [1] the test system is HCT116 (ATCC-CCL247). Nature of the data set: MTS cell proliferation and viability test on HCT116 tumour line. The data set is classed as cell-based. The following applies: Homo sapiens, HCT-116, incubating the test compound for 72 hours, read-out: IC50 HCT116 (concentration which results in 50% loss of cell proliferation and viability). As to the method:
(§1) The compounds described in Table I have formed the subject of pharmacological trials which make it possible to determine the anticancer activity. They were tested in vitro on the following tumour lines: HCT116 (ATCC-CCL247) and PC3 (ATCC-CRL1435). The cell proliferation and viability were determined in a test using 3-(4,5-dimethylthiazol-2-yl)-5-(3-carboxymethoxyphenyl)-2-(4-sulphophenyl)-2H-tetrazolium (MTS) according to Fujishita T. et al., Oncology, 2003, 64(4), 399-406. In this test, the mitochondrial capacity of the living cells to convert MTS to a coloured compound after incubating the test compound for 72 hours is measured. The concentration of compound which results in 50% loss of cell proliferation and viability is recorded as IC50.

In data set [2] the test system is PC3 (ATCC-CRL1435). As to the kind of experiment: MTS cell proliferation and viability test on PC3 tumour line. It counts as cell-based. The following applies: incubating the test compound for 72 hours, read-out: IC50 PC3 (concentration which results in 50% loss of cell proliferation and viability). As to the method:
as §1

As for `CCNc1nc(-c2ccc(NC(=O)NCc3cccnc3)cc2)ccc1C(=O)NCCN1CCNCC1` [Compound 5, 2-Ethylamino-N-(2-piperazin-1-yl-ethyl)-6-[4-(3-pyridin-3-ylmethyl-ureido)-phenyl]-nicotinamide], the pIC50 is 8.74 in data set [1] and 9.10 in data set [2].

With `CNC(=O)c1ccc(-c2ccc(NC(=O)NCc3cccnc3)cc2)nc1NCCN1CCCCC1` [Compound 17, N-Methyl-2-(2-piperidin-1-yl-ethylamino)-6-[4-(3-pyridin-3-ylmethyl-ureido)-phenyl]-nicotinamide], the pIC50 in data set [1] is 6.53; in data set [2] it was 6.58. In the case of `CCNc1nc(-c2ccc(NC(=O)NCc3ccc(N)nc3)cc2)ccc1C(=O)NCCN1CC[S+]([O-])CC1` [Compound 103, 6-{-4-[3-(6-Amino-pyridin-3-ylmethyl)-ureido]-phenyl}-2-ethylamino-N-[2-(1-oxo-1-thiomorpholin-4-yl)-ethyl]-nicotinamide], the pIC50 is 8.74 in data set [1] and 8.52 in data set [2].

Regarding `CCNc1nc(-c2ccc(NC(=O)OCc3cccnc3)cc2)ccc1C(=O)NC` [Compound 29, [4-(6-Ethylamino-5-methylcarbamoyl-pyridin-2-yl)-phenyl]-carbamic acid pyridin-3-ylmethyl ester], the melting point (in general, the temperature, or range, at which the solid turns liquid) was in the range of 234 to 235 °C. As to `CNC(=O)c1ccc(-c2ccc(NC(=O)NCc3cccnc3)cc2)nc1N` [Compound 3, 2-Amino-N-methyl-6-[4-(3-pyridin-3-ylmethyl-ureido)-phenyl]-nicotinamide], the melting point fell in the range of 234 to 236 °C. On the same count and under the same terms, then `CCNc1nc(-c2ccc(NC(=O)NCc3cccnc3)cc2)ccc1C(=O)NC` [Compound 1, 2-Ethylamino-N-methyl-6-[4-(3-pyridin-3-ylmethyl-ureido)-phenyl]-nicotinamide], with 260 to 263 °C. Consider `CNC(=O)c1ccc(-c2ccc(NC(=O)NCc3cccnc3)cc2)nc1NC1CC1` [Compound 23, 2-Cyclopropylamino-N-methyl-6-[4-(3-pyridin-3-ylmethyl-ureido)-phenyl]-nicotinamide], for which the pIC50 in data set [1] and in data set [2] was 10.00 each time. For the molecule `CNC(=O)c1ccc(-c2ccc(NC(=O)NCc3cccnc3)cc2)nc1NCc1ccccc1` [Compound 19, 2-Benzylamino-N-methyl-6-[4-(3-pyridin-3-ylmethyl-ureido)-phenyl]-nicotinamide], the pIC50 is 7.47 in data set [1] and 7.55 in data set [2]. In the case of `CCN(CC)c1nc(-c2ccc(NC(=O)NCc3cccnc3)cc2)ccc1C(=O)NC` [Compound 25, 2-Diethylamino-N-methyl-6-[4-(3-pyridin-3-ylmethyl-ureido)-phenyl]-nicotinamide], the pIC50 in data set [1] is 8.66; in data set [2] it was 8.77. The like results for `CCNc1cc(-c2ccc(NC(=O)NCc3cccnc3)cc2)ncc1C(=O)NC` [Compound 55, 4-Ethylamino-N-methyl-6-[4-(3-pyridin-3-ylmethyl-ureido)-phenyl]-nicotinamide] were, in that order, 7.46 and 7.35. `CCNc1nc(-c2ccc(NC(=O)NCc3ccc(N)nc3)cc2)ccc1C(=O)NCCN1CCCCC1` [Compound 81, 6-{-4-[3-(6-Amino-pyridin-3-ylmethyl)-ureido]-phenyl}-2-ethylamino-N-(2-piperidin-1-yl-ethyl)-nicotinamide]: the pIC50 in data set [1] and in data set [2] was 10.00 each time. On to `O=C(NCc1cccnc1)Nc1ccc(-c2ccc(C(=O)NCCN3CCCC3)c(Nc3ccccc3)n2)cc1` [Compound 33, 2-Phenylamino-6-[4-(3-pyridin-3-ylmethyl-ureido)-phenyl]-N-(2-pyrrolidin-1-yl-ethyl)-nicotinamide], for which the pIC50 in data set [1] is 9.43; in data set [2], 9.52. For the molecule `CCNc1nc(-c2ccc(NC(=O)NCc3cccnc3)cc2)ccc1C(=O)NCCO` [Compound 26, 2-Ethylamino-N-(2-hydroxy-ethyl)-6-[4-(3-pyridin-3-ylmethyl-ureido)-phenyl]-nicotinamide], the pIC50 in data set [1] was 8.20; in data set [2], 8.36. As for `CCNc1cc(-c2ccc(NC(=O)NCc3cccnc3)cc2)ccc1C(=O)NC` [Compound 62, 3-Ethylamino-4′-(3-pyridin-3-ylmethyl-ureido)-biphenyl-4-carboxylic acid methylamide], the pIC50 was 8.60 in data set [1] and 8.92 in data set [2]. The corresponding values for `CCNc1nc(-c2ccc(NC(=O)NCc3ccc(NC(=O)C(C)C)nc3)cc2)ccc1C(=O)NCCN1CCCCC1` [Compound 107, 2-Ethylamino-6-{4-[3-(6-isobutyrylamino-pyridin-3-ylmethyl)-ureido]-phenyl}-N-(2-piperidin-1-yl-ethyl)-nicotinamide] are 6.66 and 6.98.

As to `CNC(=O)c1ccc(-c2ccc(NC(=O)NCc3cccnc3)cc2)nc1NCCOC` [Compound 51, 2-(2-Methoxy-ethylamino)-N-methyl-6-[4-(3-pyridin-3-ylmethyl-ureido)-phenyl]-nicotinamide], the pIC50 in data set [1] and in data set [2] was 7.11 throughout. Turning to `CCNc1nc(-c2ccc(NC(=O)NCc3ccc(N)nc3)cc2)ccc1C(=O)NCCN1C[C@@H](C)O[C@@H](C)C1` [Compound 114, 6-{-4-[3-(6-Amino-pyridin-3-ylmethyl)-ureido]-phenyl}-N-[2-(cis-2,6-dimethyl-morpholin-4-yl)-ethyl]-2-ethylamino-nicotinamide], the pIC50 in data set [1] and in data set [2] was 10.00 each time. For `CCNc1nc(-c2ccc(NC(=O)NCc3cccnc3)cc2)ncc1C(=O)NC` [Compound 47, 4-Ethylamino-2-[4-(3-pyridin-3-ylmethyl-ureido)-phenyl]-pyrimidine-5-carboxylic acid methylamide], the pIC50 is 7.96 in data set [1] and 8.00 in data set [2]. The molecule `CCNc1nc(-c2ccc(NC(=O)NCc3cccnc3)cc2)ccc1C(=O)NCCN1CCCCC1` [Compound 13, 2-Ethylamino-N-(2-piperidin-1-yl-ethyl)-6-[4-(3-pyridin-3-ylmethyl-ureido)-phenyl]-nicotinamide] returned a melting point of 164 to 165 °C. Moreover, the pIC50 in data set [1] was 10.00. In addition, in data set [2], the pIC50 is 9.70. Turning to `CCNc1nc(-c2ccc(NC(=O)NCc3cccnc3)cc2)ccc1C(=O)NCCN(C(C)C)C(C)C` [Compound 8, N-(2-Diisopropylamino-ethyl)-2-ethylamino-6-[4-(3-pyridin-3-ylmethyl-ureido)-phenyl]-nicotinamide], the melting point was 160 to 162 °C. Take `CNC(=O)c1ccc(-c2ccc(NC(=O)NCc3cccnc3)cc2)nc1NCc1cccnc1` [Compound 12, N-Methyl-2-[(pyridin-3-ylmethyl)-amino]-6-[4-(3-pyridin-3-ylmethyl-ureido)-phenyl]-nicotinamide]: the pIC50 in data set [1] is 7.72; in data set [2], 6.95. With `CCNc1nc(-c2ccc(NC(=O)/C=C/c3cccnc3)cc2)ccc1C(=O)NCCN(C(C)C)C(C)C` [Compound 74, N-(2-Diisopropylamino-ethyl)-2-ethylamino-6-[4-((E)-3-pyridin-3-yl-acryloylamino)-phenyl]-nicotinamide], the pIC50 in data set [1] is 6.94; in data set [2], 7.68. For `CNC(=O)c1ccc(-c2ccc(NC(=O)NCc3cccnc3)cc2)nc1N1CCCC1` [Compound 49, N-Methyl-6-[4-(3-pyridin-3-ylmethyl-ureido)-phenyl]-2-pyrrolidin-1-yl-nicotinamide], the values for the pIC50 in data set [1] and in data set [2] were 6.48 and 6.50, respectively. `CNC(=O)c1ccc(-c2ccc(NC(=O)NCc3cccnc3)cc2)nc1Nc1ccccc1` [Compound 22, N-Methyl-2-phenylamino-6-[4-(3-pyridin-3-ylmethyl-ureido)-phenyl]-nicotinamide] registered a melting point of 234 to 236 °C. Besides, the pIC50 in data set [1] was 10.00. The pIC50 in data set [2] was 10.00. Molecule `CNC(=O)c1ccc(-c2ccc(NC(=O)NCc3cccnc3)cc2)nc1NCc1ccncc1` [Compound 15, N-Methyl-2-[(pyridin-4-ylmethyl)-amino]-6-[4-(3-pyridin-3-ylmethyl-ureido)-phenyl]-nicotinamide] displayed a melting point of 218 to 219 °C. Same read-out and setting: then `CCNc1nc(-c2ccc(NC(=O)NCc3ccc(N)nc3)cc2)ccc1C(=O)NC` [Compound 21, 6-{-4-[3-(6-Amino-pyridin-3-ylmethyl)-ureido]-phenyl}-2-ethylamino-N-methyl-nicotinamide], with 223 to 226 °C. As for `CCNc1nc(-c2ccc(NC(=O)NCc3ccc(NC(C)C)nc3)cc2)ccc1C(=O)NCCN1CCCCC1` [Compound 108, 2-Ethylamino-6-{-4-[3-(6-isopropylamino-pyridin-3-ylmethyl)-ureido]-phenyl}-N-(2-piperidin-1-yl-ethyl)-nicotinamide], the pIC50 in data set [1] is 6.57; in data set [2], 6.46.

For the origin of these results see patent US20100222319A1, “NICOTINAMIDE DERIVATIVES, PREPARATION THEREOF AND THERAPEUTIC USE THEREOF” (SANOFI-AVENTIS, priority 2007, published 2010).
